The text below walks through data of paper PMC10850954, “HDAC6/aggresome processing pathway importance for inflammasome formation is context-dependent” (The Journal of Biological Chemistry, 2024).

Common to all, as to assay: In vitro enzymatic assay with purified HDACs
Common to all, as to type: biochemical

The target of one assay is HDAC3 (Homo sapiens, UniProt O15379). The text has this: (§1) To extend these observations in other cell settings, we next made use of a novel HDAC6 proteolysis targeting chimera (PROTAC) degrader, XY-07-35 ([19]). Treatment of cells with XY-07-35 leads to recruitment of the E3 ligase cereblon (CRBN) to HDAC6, ubiquitination, and subsequent proteasomal degradation of HDAC6 (Fig. 3A).
(§2) Figure 3 Effect of […] mediated HDAC6 degradation on NLRP3 inflammasome activation in PBMCs.A, schematic of the mode of action of an HDAC6 degrader. The PROTAC engages both HDAC6 and the E3 ligase cereblon (CRBN), which then leads to ubiquitination and degradation of HDAC6. B, chemical structure of the HDAC6 degrader XY-07-35 and of the negative control XY-07-191 which no longer recruits CRBN. C, in vitro enzymatic assay of compound XY-07-35 on the activity of different HDACs. IC50 for each enzyme is shown. D, XY-07-35 mediated HDAC6 degradation in PBMCs. PBMCs (without or with LPS priming for 4 h) were treated with the indicated compounds and HDAC6 levels were detected by immunoblotting with an anti-HDAC6 antibody. Detection of actin was used as a control for loading. CGP, CGP084892 (Caspase-1 inhibitor); AFN700 is an inhibitor of the NF-kB pathway (IKK inhibitor). E, HDAC6 degradation impact on IL-1β release in PBMCs following MSU 200 μg/ml (5 h), nigericin 2 μM (2 h) or ATP 3 mM (0.5 h) treatment. Cells were first primed with 0.2 ng/ml LPS for 4 h at 37 °C, then treated with MSU, nigericin, and ATP as indicated. The graphs below show the results of three independent experiments using the inducers as indicated. NP3-948 is an inhibitor of the NLRP3 inflammasome. TEXT PRINTED IN THE PICTURE: (C) XY-07-035: Compound IC50 (μM): 1.04 (Target: HDAC1); Compound IC50 (μM): 2.47 (Target: HDAC2); Compound IC50 (μM): 1.44 (Target: HDAC3); Compound IC50 (μM): 5.75 (Target: HDAC5); Compound IC50 (μM): 0.0485 (Target: HDAC6); Compound IC50 (μM): 0.621 (Target: HDAC8) DOUBTS OF THE COPYIST ABOUT THIS PICTURE: XY-07-035, HDAC4, HDAC7 and HDAC9: the table prints only dashes (--), no value, so these rows are left out

The next assay concerns other HDACs. The settings on record: other HDACs (than HDAC6 and HDAC8).
Description: as §1, §2

The next assay addresses HDAC2 (Homo sapiens, UniProt Q92769).
Description: as §1, §2

The target in the next assay is HDAC1 (Homo sapiens, UniProt Q13547).
Description: as §1, §2

Another assay deals with HDAC5 (Homo sapiens, UniProt Q9UQL6).
Description: as §1, §2

The next assay deals with T1, HDAC6 (Homo sapiens, UniProt Q9UBN7).
T1 sequence (Q9UBN7 1-1215): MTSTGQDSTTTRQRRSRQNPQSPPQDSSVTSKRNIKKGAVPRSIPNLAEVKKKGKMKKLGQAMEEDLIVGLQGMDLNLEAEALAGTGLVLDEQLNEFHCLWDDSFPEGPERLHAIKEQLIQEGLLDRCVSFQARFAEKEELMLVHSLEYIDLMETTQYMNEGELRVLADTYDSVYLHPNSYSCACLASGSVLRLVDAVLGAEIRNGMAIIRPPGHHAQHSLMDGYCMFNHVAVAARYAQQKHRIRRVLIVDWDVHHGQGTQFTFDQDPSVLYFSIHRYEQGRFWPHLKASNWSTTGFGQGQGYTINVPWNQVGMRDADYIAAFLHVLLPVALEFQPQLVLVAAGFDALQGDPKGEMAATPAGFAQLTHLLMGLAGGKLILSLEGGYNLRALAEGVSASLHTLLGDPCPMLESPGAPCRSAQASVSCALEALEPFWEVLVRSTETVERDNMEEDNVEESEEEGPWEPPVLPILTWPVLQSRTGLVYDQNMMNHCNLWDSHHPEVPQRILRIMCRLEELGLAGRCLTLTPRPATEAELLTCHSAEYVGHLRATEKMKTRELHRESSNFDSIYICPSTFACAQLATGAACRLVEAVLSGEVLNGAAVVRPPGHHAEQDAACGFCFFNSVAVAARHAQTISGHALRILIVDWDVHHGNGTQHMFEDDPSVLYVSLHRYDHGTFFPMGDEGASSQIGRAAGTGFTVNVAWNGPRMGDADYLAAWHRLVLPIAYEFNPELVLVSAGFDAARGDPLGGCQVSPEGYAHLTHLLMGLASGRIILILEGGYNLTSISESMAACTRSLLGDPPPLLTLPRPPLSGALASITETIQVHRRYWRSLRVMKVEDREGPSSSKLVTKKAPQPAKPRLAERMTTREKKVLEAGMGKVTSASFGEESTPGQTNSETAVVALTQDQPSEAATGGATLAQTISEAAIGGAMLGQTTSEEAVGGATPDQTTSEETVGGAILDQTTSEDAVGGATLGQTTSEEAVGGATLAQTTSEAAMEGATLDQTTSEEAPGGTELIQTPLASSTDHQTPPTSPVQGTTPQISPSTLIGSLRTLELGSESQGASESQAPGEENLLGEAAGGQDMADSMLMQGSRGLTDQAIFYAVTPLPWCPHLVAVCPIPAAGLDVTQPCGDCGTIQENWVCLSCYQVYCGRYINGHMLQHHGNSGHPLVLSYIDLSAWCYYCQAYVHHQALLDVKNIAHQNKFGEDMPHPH
Description: as §1, §2

The next assay addresses T2, HDAC8 (Homo sapiens, UniProt Q9BY41).
T2 sequence (Q9BY41 1-377): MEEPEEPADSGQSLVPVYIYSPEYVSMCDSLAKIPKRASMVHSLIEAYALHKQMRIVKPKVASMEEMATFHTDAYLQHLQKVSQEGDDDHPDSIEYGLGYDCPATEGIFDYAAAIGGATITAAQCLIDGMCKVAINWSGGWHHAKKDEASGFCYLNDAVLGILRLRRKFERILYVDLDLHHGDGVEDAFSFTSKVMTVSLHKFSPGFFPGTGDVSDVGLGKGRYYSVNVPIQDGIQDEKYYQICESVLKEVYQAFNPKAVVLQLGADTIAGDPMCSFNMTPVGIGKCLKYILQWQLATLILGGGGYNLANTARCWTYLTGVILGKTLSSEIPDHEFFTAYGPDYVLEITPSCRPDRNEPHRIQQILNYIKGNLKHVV
Description: as §1, §2

Sequence of HDAC3 (O15379 whole entry, species assumed): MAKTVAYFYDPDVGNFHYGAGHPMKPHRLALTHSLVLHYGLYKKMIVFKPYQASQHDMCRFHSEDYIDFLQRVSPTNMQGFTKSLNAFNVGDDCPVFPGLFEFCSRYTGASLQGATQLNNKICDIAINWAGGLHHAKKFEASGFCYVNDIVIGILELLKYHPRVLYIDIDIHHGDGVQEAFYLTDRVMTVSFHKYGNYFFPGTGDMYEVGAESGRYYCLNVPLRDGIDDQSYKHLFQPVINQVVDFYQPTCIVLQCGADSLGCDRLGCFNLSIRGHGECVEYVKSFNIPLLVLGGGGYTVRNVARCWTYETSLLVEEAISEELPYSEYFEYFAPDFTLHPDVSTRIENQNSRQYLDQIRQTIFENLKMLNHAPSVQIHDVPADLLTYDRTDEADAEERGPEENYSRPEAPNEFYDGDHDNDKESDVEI
Sequence of HDAC3 (Q9Y618 395-489 partner limits assumed, species assumed): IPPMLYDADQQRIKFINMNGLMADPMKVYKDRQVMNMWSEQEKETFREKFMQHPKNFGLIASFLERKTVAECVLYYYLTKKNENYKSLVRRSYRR
Sequence of HDAC5 (Q9UQL6 whole entry, species assumed): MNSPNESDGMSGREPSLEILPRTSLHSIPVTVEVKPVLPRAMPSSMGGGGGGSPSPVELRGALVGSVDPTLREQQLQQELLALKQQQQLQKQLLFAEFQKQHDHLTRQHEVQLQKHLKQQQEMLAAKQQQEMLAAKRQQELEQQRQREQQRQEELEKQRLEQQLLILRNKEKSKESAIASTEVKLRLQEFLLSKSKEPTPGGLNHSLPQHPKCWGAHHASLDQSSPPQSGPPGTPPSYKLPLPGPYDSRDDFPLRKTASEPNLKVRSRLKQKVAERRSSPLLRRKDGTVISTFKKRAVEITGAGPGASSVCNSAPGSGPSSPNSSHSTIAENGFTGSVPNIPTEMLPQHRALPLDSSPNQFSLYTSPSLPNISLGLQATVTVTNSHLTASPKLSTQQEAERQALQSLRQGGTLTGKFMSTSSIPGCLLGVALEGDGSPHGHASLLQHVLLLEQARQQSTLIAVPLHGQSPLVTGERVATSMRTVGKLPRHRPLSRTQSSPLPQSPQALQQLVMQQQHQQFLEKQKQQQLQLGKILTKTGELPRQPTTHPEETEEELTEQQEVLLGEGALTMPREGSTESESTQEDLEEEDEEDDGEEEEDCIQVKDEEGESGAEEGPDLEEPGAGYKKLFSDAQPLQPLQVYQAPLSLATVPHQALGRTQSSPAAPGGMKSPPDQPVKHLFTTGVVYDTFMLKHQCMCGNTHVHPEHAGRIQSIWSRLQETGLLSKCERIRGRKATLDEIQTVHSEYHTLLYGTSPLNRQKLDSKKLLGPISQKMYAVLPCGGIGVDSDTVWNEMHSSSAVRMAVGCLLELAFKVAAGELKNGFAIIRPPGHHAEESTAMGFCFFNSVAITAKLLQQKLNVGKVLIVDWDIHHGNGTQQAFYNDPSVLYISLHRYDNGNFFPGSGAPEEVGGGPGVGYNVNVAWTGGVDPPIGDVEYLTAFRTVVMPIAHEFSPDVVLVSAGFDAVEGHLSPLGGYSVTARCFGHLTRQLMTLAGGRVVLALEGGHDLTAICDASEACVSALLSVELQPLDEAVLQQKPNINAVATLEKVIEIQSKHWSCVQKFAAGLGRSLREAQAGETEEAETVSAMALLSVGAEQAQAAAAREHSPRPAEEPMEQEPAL
Sequence of HDAC2 (Q92769 whole entry, species assumed): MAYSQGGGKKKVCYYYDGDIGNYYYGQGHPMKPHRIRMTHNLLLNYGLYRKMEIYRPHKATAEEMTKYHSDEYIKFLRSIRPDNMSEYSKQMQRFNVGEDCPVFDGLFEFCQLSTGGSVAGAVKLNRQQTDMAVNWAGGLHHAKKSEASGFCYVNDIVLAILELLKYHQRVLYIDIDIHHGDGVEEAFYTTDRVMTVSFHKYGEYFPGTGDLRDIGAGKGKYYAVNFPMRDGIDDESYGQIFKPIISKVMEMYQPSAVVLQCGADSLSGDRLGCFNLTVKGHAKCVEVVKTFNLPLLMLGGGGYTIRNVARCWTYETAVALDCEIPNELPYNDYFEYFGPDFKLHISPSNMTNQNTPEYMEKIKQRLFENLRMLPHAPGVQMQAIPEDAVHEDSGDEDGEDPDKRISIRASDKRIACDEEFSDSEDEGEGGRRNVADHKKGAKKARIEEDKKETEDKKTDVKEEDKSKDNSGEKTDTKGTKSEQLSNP
Sequence of HDAC1 (Q13547 whole entry, species assumed): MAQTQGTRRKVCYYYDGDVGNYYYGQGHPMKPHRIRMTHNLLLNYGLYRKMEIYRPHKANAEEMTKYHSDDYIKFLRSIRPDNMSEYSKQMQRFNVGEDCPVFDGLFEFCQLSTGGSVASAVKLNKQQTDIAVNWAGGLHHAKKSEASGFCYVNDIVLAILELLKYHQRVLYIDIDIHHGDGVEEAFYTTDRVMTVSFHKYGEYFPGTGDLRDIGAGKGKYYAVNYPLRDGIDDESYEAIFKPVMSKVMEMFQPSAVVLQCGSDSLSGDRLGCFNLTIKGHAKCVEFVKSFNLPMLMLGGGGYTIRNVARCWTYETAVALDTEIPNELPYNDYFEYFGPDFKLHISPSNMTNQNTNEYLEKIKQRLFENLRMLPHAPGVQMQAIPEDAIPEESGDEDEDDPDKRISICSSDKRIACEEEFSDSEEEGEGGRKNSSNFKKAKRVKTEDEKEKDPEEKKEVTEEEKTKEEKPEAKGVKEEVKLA

With `CN(C(=O)CCCNc1cccc2c1C(=O)N(C1CCC(=O)NC1=O)C2=O)c1ccc(NC(=O)CCCCCCC(=O)NO)cc1` (stereo not shown) [XY-07-35], the IC50 is 1440 nM against HDAC3; 1040 to 5750 nM with other HDACs; 2470 nM on HDAC2; 1040 nM against HDAC1; 5750 nM at HDAC5; 48.5 nM on HDAC6. This molecule came in with an IC50 on HDAC8 of 621 nM.

For orientation: IC50 means the concentration needed to halve the response being measured. Read a low IC50 as higher potency.
